As usually defined, the inhibition is the change of the read-out against control, counted positive when it falls.

For series [1], the target named is T1, p70S6K (Homo sapiens, UniProt P23443).
T1 construct: phosphorylation levels of well-known intracellular substrates for each kinase; endogenous in cells
Nature of the series: cell-based kinase assay, phosphorylation of intracellular substrates. As to the method: (§1) To test the specificity/selectivity of ZaTa as the inhibitor of AKT1 versus the other major kinases, a series of in vitro kinase assays was performed at IC50 for AKT1 and at ten times higher concentrations. A panel of the following 32 kinases was first tested in vitro using the active form of each kinase and a specific substrate: AKT2, AKT3, PKA, PKCα, PKCγ, PI3Kβ, PI3Kδ, PI3Kγ, SGK, PAK2, PAK3, SAPK2/p38, Abl, CaMKII, CDK1/cyclinB, CDK5/p35, CK1, CK2, CSK, GSK3α, GSK3β, JNK1α1, MAPK1, p70S6K, PDGFRα, PDGFRβ, PDK1, PKG1α, TrkB, JAK2, JAK3, and Syk. […] However, at ten times higher concentration, ZaTa inhibited AKT2 (63%), PI3Kδ (72%), p70S6K (64%), SGK (73%), PAK3 (83%), JAK3 (79%), TrkB (84%), and Abl (42%). To confirm the in vitro inhibitory effect on these kinases in cells, a cell-based assay was used to determine the effect of labeled ZaTa on the phosphorylation levels of well-known intracellular substrates for each kinase (Zipfel, et al. (2004) Curr. Biol. 14:1222-1231; Wang, et al. (2003) Arch. Biochem. Biophys. 410:7-15; King, et al. (1998) Nature 396:180-183; Rangone, et al. (2004)Eur. J. Neurosci. 19:273-279; Middlemas, et al. (1994)J. Biol. Chem. 269:5458-5466; Huang, et al. (1999) J. Biol. Chem. 274:7870-7878). The results of this cell-based kinase assay confirmed that ZaTa could inhibit p70S6K besides AKT. […]

The target of a further series is PKAc (Homo sapiens, UniProt P17612). Put plainly: independent kinase assays on PKAc catalytic activity. The format is biochemical.
Another series deals with panel of 32 kinases. Nature of the series: in vitro kinase selectivity panel of 32 kinases. In kind it is biochemical. To be noted: at IC50 for AKT1 (0.1 μM). As to the method: as §1
The subject of a further series is PKA, PKC, CDKs. Nature of the series: stereotactic injection into brain, phosphorylation of PKA, PKC and CDKs substrates. Set-up: species or system mouse. As for the experimental part:
(§2) To analyze in vivo selectivity, ZaTa was injected into one hemisphere and DMSO in the other hemisphere, as above, and a series of western blot analyses was performed with phospho-specific antibodies which recognize a phosphorylated substrate or each one of the kinases that ZaTa inhibited at higher concentrations in vitro. […] Given the high functional and structural homology between p70S6K and AKT, the in vivo inhibitory effect of ZaTa on p70S6K was contemplated. Furthermore, the in vivo effect of ZaTa on the phosphorylation levels of substrates for PKA, PKC, CDKs using phospho-specific antibodies recognizing the phosphorylated consensus sites of these kinases was analyzed.
As a striatal specific substrate for PKA and CDK5, the phosphorylation level of DARPP-32 was determined at Thr-34 (the PKA site) or at Thr-75 (the CDK5 site) (Huang, et al. (1999) supra).

In series [2] the target is T1, p70S6K. Put plainly: in vitro kinase assay, selectivity. The format is biochemical. Set-up: dose or concentration left out as unconfirmed. As for the experimental part: (§3) To test the specificity/selectivity of ZaTa as the inhibitor of AKT1 versus the other major kinases, a series of in vitro kinase assays was performed at IC50 for AKT1 and at ten times higher concentrations. A panel of the following 32 kinases was first tested in vitro using the active form of each kinase and a specific substrate: AKT2, AKT3, PKA, PKCα, PKCγ, PI3Kβ, PI3Kδ, PI3Kγ, SGK, PAK2, PAK3, SAPK2/p38, Abl, CaMKII, CDK1/cyclinB, CDK5/p35, CK1, CK2, CSK, GSK3α, GSK3β, JNK1α1, MAPK1, p70S6K, PDGFRα, PDGFRβ, PDK1, PKG1α, TrkB, JAK2, JAK3, and Syk. […] However, at ten times higher concentration, ZaTa inhibited AKT2 (63%), PI3Kδ (72%), p70S6K (64%), SGK (73%), PAK3 (83%), JAK3 (79%), TrkB (84%), and Abl (42%). To confirm the in vitro inhibitory effect on these kinases in cells, a cell-based assay was used to determine the effect of labeled ZaTa on the phosphorylation levels of well-known intracellular substrates for each kinase (Zipfel, et al. (2004) Curr. Biol. 14:1222-1231; Wang, et al. (2003) Arch. Biochem. Biophys. 410:7-15; King, et al. (1998) Nature 396:180-183; Rangone, et al. (2004)Eur. J. Neurosci. 19:273-279; Middlemas, et al. (1994)J. Biol. Chem. 269:5458-5466; Huang, et al. (1999) J. Biol. Chem. 274:7870-7878). The results of this cell-based kinase assay confirmed that ZaTa could inhibit p70S6K besides AKT. […] Given that most of the above-listed kinases have no known inhibitor, it is contemplated that the ZaTa could be used at micromolar concentrations in in vitro studies to inhibit the activity of the select kinases.

The target of a further series is AKT2 (Homo sapiens, UniProt P31751). Nature of the series: in vitro kinase assay, selectivity. In kind it is biochemical. Set-up: dose or concentration left out as unconfirmed. As to the method:
as §3

The next series deals with TrkB (Homo sapiens, UniProt Q16620). Nature of the series: in vitro kinase assay, selectivity. In kind it is biochemical. Set-up: dose or concentration left out as unconfirmed. As for the experimental part:
as §3

The target of a further series is T2, JAK3 (Homo sapiens, UniProt P52333).
T2 construct: phosphorylation levels of well-known intracellular substrates for each kinase; endogenous in cells
T2 sequence (P52333 whole entry, species assumed): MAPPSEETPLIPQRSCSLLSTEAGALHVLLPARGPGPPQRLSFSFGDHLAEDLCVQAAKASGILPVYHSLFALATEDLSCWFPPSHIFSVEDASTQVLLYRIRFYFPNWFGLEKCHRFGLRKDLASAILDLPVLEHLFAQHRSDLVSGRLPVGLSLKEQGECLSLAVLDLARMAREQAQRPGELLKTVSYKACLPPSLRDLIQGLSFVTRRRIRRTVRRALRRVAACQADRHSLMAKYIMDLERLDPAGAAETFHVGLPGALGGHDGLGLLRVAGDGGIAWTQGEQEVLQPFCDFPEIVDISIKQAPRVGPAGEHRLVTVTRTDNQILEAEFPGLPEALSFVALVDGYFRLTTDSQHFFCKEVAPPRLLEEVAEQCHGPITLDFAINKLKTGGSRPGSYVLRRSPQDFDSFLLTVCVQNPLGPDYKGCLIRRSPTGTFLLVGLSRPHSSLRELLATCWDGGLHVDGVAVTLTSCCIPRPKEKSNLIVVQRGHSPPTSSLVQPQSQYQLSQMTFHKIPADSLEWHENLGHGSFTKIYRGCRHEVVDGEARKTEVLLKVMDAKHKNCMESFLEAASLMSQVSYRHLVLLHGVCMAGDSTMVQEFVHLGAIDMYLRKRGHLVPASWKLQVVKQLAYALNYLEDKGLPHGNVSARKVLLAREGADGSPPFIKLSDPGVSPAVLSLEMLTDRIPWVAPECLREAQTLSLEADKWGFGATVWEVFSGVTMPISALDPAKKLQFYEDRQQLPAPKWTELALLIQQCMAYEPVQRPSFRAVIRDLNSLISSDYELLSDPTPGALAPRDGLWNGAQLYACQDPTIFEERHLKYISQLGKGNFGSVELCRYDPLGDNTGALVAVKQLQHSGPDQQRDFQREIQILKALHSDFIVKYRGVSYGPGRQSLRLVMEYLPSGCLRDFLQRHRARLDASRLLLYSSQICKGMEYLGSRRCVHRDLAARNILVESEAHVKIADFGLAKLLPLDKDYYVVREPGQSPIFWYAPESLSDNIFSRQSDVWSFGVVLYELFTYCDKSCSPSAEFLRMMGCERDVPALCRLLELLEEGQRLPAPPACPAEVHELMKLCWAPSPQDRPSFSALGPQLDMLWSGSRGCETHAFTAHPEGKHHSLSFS
Nature of the series: in vitro kinase assay, selectivity. In kind it is biochemical. Further details: dose or concentration left out as unconfirmed. As for the experimental part: as §3

Another series has as its target T3, SGK (Homo sapiens, UniProt O00141).
T3 construct: phosphorylation levels of well-known intracellular substrates for each kinase; endogenous in cells
Nature of the series: in vitro kinase assay, selectivity. The format is biochemical. Further details: dose or concentration left out as unconfirmed. As for the experimental part: as §3

For series [3], the target named is T4, p70S6K (Mus musculus, UniProt Q8BSK8).
T4 construct: from tissue; host or cells: brain hemisphere, in vivo
T4 sequence (Q8BSK8 whole entry): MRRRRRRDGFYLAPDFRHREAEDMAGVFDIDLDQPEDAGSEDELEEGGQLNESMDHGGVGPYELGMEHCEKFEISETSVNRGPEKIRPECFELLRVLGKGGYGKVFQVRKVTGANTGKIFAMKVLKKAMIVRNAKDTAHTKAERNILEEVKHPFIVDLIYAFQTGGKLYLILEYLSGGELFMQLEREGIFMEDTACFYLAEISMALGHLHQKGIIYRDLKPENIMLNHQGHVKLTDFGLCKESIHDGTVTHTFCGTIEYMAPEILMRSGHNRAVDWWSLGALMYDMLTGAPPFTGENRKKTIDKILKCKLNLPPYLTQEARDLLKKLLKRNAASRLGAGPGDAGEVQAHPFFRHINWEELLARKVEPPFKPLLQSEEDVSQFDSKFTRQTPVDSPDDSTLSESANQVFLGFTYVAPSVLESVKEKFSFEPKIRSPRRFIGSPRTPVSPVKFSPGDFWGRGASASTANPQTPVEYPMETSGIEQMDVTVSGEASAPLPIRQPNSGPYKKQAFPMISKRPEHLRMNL
Put plainly: stereotactic injection into brain, western blot with phospho-specific antibodies. In kind it is in vivo. The following applies: vs DMSO hemisphere. As to the method:
as §2
Background: In western blotting, separated proteins are transferred to a membrane and probed.

Another series concerns the target T5, Abl (Mus musculus, UniProt P00520).
T5 construct: from tissue; host or cells: brain hemisphere, in vivo
The description is as above. To be noted: vs DMSO hemisphere. The format is in vivo. As for the experimental part: as §2

A further series concerns N2a cells. Nature of the series: AKT-PKAc complex and neurite count in cultured N2a neurons. In kind it is cell-based. The following applies: 24 hours treatment. As to the method:
Accordingly, the stability and phenotypic consequences of the AKT-PKAc complex was also analyzed in cultured neurons. N2a cells were treated with vehicle, ZaTa or control peptide for 24 hours. Media was removed after the 24-hour treatment and an equal number of cells from each treatment group was either cultured for another 24 hours without treatment, or lysed and subjected to immunoprecipitation with an antibody against AKT. Those cells cultured for another 24 hours were also harvested and subjected to immunoprecipitation. In parallel, the number of individual neurons with neurites was counted. […] Live images of N2a neurons were captured following treatment with vehicle or ZaTa (2 or 5 μM). […] ZaTa-mediated changes included a progressive loss of neurites, inhibition of new neurite formation, loss of cell motility, as well as formation of large cell colonies.

The next series addresses AKT (Homo sapiens, UniProt P31749). Put plainly: in vitro AKT kinase assay with Ser-9 GSK-3 GST fusion protein substrate; PKAc peptide library screen. The format is biochemical. To be noted: Ser-9 GSK-3 GST substrate.
Series [4] can be described thus: trypan blue staining, live and dead cell count. In kind it is cell-based. The following applies: 12 to 72 hours. From the text:
Therefore, in addition to capturing live images, cells were stained with trypan blue at different time intervals following treatment with ZaTa and counted by a light microscope using a hemocytometer.

The test system of a further series is primary neurons. Nature of the series: TUNEL assay in primary cortical culture. The following applies: 1 μM or 5 μM, 72-hour treatment, vs control peptide. The format is cell-based. As for the experimental part: It is now well-established that AKT protects against apoptosis through phosphorylation and inhibition of pro-apoptotic mediators such as BAD, FOXO family members and IKK-β (Datta, et al. (1999) Genes Dev. 13:2905-2927). […] Primary neurons were treated with DMSO, 1 μM or 5 μM of either ZaTa or the control peptide for a duration of 1, 3, 16, 24, 48 or 72 hours. The number of apoptotic cells was counted following the TUNEL assay. […] The increase in the number of apoptotic neurons following treatment with ZaTa was consistent with its potent intra-neuronal inhibition of AKT.

Where no end group is shown, it is not given here.

T1 sequence (P23443 whole entry): as the sequence (Q8BSK8 whole entry) above, with L12P, H18D, V488M counted along it
Chain of AKT (P31749 whole entry, the tested form may be a part): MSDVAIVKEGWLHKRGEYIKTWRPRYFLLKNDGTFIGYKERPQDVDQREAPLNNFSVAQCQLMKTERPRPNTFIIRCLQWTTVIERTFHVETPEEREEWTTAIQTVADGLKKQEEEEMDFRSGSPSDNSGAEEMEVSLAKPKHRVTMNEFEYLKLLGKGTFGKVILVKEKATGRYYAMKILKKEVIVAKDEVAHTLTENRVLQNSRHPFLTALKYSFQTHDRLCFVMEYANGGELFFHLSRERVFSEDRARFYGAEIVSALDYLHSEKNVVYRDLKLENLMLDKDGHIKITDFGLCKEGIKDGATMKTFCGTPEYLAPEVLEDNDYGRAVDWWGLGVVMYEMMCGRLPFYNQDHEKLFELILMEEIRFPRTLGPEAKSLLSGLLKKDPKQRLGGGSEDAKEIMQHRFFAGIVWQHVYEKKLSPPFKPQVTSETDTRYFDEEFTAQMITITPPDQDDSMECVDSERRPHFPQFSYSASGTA
Chain of AKT2 (P31751 whole entry, species assumed): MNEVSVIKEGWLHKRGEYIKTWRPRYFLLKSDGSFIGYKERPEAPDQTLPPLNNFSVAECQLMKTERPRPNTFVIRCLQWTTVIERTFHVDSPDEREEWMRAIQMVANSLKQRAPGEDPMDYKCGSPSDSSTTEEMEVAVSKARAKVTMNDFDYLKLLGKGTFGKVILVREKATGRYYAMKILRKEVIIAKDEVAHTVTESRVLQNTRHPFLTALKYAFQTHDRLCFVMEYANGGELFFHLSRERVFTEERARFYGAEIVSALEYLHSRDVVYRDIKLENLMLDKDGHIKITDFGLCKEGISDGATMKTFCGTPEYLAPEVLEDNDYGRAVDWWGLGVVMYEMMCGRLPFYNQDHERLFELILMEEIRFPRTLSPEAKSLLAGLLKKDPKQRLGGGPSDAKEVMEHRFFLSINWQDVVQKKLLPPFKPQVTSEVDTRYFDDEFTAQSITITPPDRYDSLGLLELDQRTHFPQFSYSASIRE
T3 sequence (O00141 whole entry, species assumed): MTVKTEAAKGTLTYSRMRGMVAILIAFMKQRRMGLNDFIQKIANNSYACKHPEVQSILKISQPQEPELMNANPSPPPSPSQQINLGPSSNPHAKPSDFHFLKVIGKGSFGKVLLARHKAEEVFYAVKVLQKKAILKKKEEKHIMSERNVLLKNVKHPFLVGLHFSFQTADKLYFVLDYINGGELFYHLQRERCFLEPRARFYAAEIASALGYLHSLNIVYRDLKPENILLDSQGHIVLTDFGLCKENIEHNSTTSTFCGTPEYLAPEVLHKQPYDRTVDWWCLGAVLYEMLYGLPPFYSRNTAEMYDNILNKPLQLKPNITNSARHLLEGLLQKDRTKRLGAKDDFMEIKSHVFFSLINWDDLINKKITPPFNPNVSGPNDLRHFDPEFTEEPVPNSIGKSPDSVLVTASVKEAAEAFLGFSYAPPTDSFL
Chain of TrkB (Q16620 32-822, species assumed): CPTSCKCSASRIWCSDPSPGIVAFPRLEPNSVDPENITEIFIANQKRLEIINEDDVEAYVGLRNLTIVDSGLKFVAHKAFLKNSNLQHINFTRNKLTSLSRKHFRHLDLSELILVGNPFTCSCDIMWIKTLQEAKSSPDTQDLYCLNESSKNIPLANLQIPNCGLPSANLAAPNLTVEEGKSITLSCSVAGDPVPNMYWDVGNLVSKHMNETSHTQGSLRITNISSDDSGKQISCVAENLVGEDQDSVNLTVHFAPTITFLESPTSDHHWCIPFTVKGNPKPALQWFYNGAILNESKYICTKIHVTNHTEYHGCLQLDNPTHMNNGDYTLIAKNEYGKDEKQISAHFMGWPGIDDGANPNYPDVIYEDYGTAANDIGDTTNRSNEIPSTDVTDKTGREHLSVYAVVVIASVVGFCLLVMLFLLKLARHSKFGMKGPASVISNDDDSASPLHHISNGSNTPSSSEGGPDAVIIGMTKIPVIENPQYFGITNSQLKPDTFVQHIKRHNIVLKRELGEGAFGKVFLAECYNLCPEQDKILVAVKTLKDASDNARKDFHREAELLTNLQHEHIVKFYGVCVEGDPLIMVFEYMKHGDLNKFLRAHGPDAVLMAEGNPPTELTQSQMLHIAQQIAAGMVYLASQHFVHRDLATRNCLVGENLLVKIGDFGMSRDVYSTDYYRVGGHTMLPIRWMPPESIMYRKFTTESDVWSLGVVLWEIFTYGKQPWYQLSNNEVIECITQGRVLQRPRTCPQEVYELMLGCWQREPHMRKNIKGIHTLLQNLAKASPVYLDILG
T5 sequence (P00520 whole entry): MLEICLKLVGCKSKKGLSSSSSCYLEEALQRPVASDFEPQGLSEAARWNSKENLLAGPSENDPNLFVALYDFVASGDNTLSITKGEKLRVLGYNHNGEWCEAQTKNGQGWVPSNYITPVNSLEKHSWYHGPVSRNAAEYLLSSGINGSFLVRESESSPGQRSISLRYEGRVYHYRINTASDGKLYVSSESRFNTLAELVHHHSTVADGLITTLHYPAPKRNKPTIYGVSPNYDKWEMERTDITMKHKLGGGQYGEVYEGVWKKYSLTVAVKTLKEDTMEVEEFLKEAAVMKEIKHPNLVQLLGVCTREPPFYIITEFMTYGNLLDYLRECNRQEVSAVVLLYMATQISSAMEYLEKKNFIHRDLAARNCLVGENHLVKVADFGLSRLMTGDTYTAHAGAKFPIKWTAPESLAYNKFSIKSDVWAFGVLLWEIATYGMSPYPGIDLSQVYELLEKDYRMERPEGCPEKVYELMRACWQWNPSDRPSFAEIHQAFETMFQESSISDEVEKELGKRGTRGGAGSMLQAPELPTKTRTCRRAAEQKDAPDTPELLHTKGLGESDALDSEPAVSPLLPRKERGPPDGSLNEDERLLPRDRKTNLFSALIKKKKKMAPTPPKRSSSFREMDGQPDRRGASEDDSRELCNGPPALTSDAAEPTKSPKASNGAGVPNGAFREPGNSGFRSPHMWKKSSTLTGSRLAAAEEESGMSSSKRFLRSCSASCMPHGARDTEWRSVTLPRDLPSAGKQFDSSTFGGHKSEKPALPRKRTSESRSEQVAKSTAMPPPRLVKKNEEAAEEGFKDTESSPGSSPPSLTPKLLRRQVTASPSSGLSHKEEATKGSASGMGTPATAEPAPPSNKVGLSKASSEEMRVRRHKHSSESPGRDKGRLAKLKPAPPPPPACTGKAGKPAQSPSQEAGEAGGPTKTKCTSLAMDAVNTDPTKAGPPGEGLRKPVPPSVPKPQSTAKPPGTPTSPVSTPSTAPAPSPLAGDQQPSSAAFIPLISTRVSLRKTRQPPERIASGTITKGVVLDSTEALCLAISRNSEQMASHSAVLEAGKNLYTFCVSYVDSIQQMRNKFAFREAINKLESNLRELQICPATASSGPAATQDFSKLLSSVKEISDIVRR

For “AKRVKGRTWTLCGTPEY [Peptide 53, A-K-R-V-K-G-R-T-W-T-L-C-G-T-P-E-Y]”, the “inhibition of p70S6K in cells” value at p70S6K [1] is given as “could inhibit”. Also, on PKAc, the “inhibitory effect on catalytic activity of PKAc” value was “did not exhibit any inhibitory effect”. Moreover, the “inhibition of panel kinases” value with panel of 32 kinases is on record as “no significant inhibition”. Further, the “phosphorylation level of PKA, PKC and CDKs substrates in vivo” value with PKA, PKC, CDKs was “significant changes in the phosphorylation level of PKA, PKC and CDKs substrates was not observed”. Moreover, the inhibition is 64% at p70S6K [2]; 63% at AKT2; 84% at TrkB; 79% against JAK3; 73% against SGK. For the same sequence, the “in vivo inhibition of p70S6K” value on p70S6K [3] is “potent in vivo inhibition”. For the same sequence, the “in vivo inhibition of Abl” value on Abl is “weaker in vivo inhibition”. Moreover, the “amount of PKAc in physical contact with AKT” value with N2a cells is on record as “reduced the amount of PKAc in physical contact with AKT”. For the same sequence, the “number of neurons with neurites” value in the series on N2a cells is on record as “significant reduction in the number of neurons with neurites”. Besides, the “inhibitory effect on catalytic activity of AKT” value against AKT is on record as “significant inhibitory effects”; on AKT (listed as ZaTa), “significantly reduced”. Moreover, in series [4], the “number of dead cells” value is given as “a significant increase in the number of dead cells was not seen”. Besides, the “number of TUNEL-positive cells” value in the series with primary neurons is “marked dose-dependent increase in the number of TUNEL-positive cells”.

The record behind these values is patent US12473332B2, “Modified peptides and associated methods of use” (Advanced Technologies For Novel Therapeutics, LLC, priority 2019, dated 2025).
